Experimental data as given in PMC11070402, “New antiproliferative 3-substituted oxindoles inhibiting EGFR/VEGFR-2 and tubulin polymerization” (Molecular Diversity, 2023).
Where “and” joins values, the source holds several entries; their conditions need not be identical. Equal entries are not always repeated. Where two headings read alike, the source gives them in different places.

How the values were obtained:
colchicine-binding site = biological target: colchicine-binding site; design: method as in PMID 34649064; details: read-out: competitive inhibition at the colchicine-binding site IC50; cited from earlier work
EGFR (L858R) = tested on: EGFR (L858R); design: method as in PMID 29758406; details: read-out: IC50 against EGFR (L858R); cited from earlier work
EGFR (T790M) = tested on: EGFR (T790M); design: method as in PMID 29758406; details: read-out: IC50 against EGFR (T790M); cited from earlier work
c-MET = tested on: c-MET; design: method as in PMID 29758406; details: read-out: IC50 against c-MET; cited from earlier work
tubulin [1] = tested on: tubulin; design: method as in PMID 33038796; details: read-out: tubulin polymerization IC50; cited from earlier work
[2] = tested on: Human Skin Fibroblasts (HSF) cells; assay: Margin of safety: cytotoxicity on human skin fibroblasts (SRB assay); assay type: cell-based
Protocol: Cell viability was assessed via SRB assay. Aliquots of 100 µl cell suspension (5 × 10^3 cells) were in 96-well plates and incubated in a complete media for 24 h. […] After 72 h of drug exposure, cells were fixed by replacing media with 150 µl of 10% TCA and incubated at 4 °C for 1 h. The TCA solution was removed, and the cells were washed 5 times with distilled water. Aliquots of […] SRB solution (0.4 w/v) were added and incubated in a dark place at room temperature for 10 min. Plates were washed 3 times with 1% acetic acid and allowed to air-dry overnight. Then, 150 µl of TRIS (10 mM) was added to dissolve the protein-bound SRB stain; the absorbance was measured at 540 nm using a BMG LAB TECH®-FLUO star Omega microplate reader (Ortenberg, Germany).

[3] = tested on: MCF-7 (human breast cancer); assay: Cytotoxicity versus MCF-7 cell line (MTT assay); details: MCF7, read-out: MCF-7 (IC50 ± SD, uM)
tubulin [4] = tested on: tubulin; design: method as in doi:10.1016/j.molstruc.2022.132345; details: read-out: anti-tubulin activity IC50; cited from earlier work
VEGFR-2 = details: cited from earlier work
[5] = tested on: SNB-75 cells (CNS cancer cell line); assay: NCI one-dose assay, SNB-75; assay type: cell-based; details: Homo sapiens; SNB-75 (CNS Cancer), 10 uM single dose; read-out: Growth inhibition %
Protocol: (§1) All novel scaffolds 6a–j were carefully selected by the National Cancer Institute (NCI), Bethesda, USA, to elucidate their cytotoxic activity versus 60 human cancer cell lines at 10 µM as a single-dose concentration after a 48 h incubation period.
(§2) National Cancer Institution selected all the synthesized 6a–j (NCI), Bethesda, USA, for in vitro one-dose antitumor assay. The methodology protocol for the NCI anticancer screening was reported in detail elsewhere (http://www.dtp.nci.nih.gov). The anticancer assay was performed in full NCI 60 cell lines extracted from nine tumor cell lines, including leukemia, melanoma, lung, colon, CNS, ovarian, renal, prostate, and breast cancer cell lines.

T-47D = assay: NCI one-dose assay, T-47D; assay type: cell-based; details: Homo sapiens, T47D; T-47D (Breast Cancer), 10 uM single dose; read-out: Growth inhibition %
Protocol: as §1, §2

MOLT-4 = assay: NCI one-dose assay, MOLT-4; assay type: cell-based; details: Homo sapiens; MOLT-4 (Leukemia), 10 uM single dose; read-out: Growth inhibition %
Protocol: as §1, §2

K-562 = assay: NCI one-dose assay, K-562; assay type: cell-based; details: Homo sapiens, K562; K-562 (Leukemia), 10 uM single dose; read-out: Growth inhibition %
Protocol: as §1, §2

SR = assay: NCI one-dose assay, SR; assay type: cell-based; details: Homo sapiens; SR (Leukemia), 10 uM single dose; read-out: Growth inhibition %
Protocol: as §1, §2

[6] = tested on: 60 human cancer cell lines; assay: NCI one-dose assay against sixty NCI cancer cell lines; assay type: cell-based
Protocol: as §1, §2

[7] = tested on: HOP-92 (non-small cell lung cancer cell line); assay: NCI one-dose assay, HOP-92; assay type: cell-based; details: Homo sapiens; HOP-92 (Non-Small Cell Lung Cancer), 10 uM single dose; read-out: Growth inhibition %
Protocol: as §1, §2

UO-31 = assay: NCI one-dose assay, UO-31; assay type: cell-based; details: Homo sapiens; UO-31 (Renal Cancer), 10 uM single dose; read-out: Growth inhibition %
Protocol: as §1, §2

MCF-7 = assay: NCI one-dose assay, MCF-7; assay type: cell-based, human; details: Homo sapiens, MCF7, MCF7 (Breast Cancer), 10 uM single dose; read-out: Growth inhibition %
Protocol: as §1, §2

SK-MEL-5 = assay: NCI one-dose assay, SK-MEL-5; assay type: cell-based; details: Homo sapiens; SK-MEL-5 (Melanoma), 10 uM single dose; read-out: Growth inhibition %
Protocol: as §1, §2

[8] = tested on: NCI/ADR-RES (ovarian cancer cell line); assay: NCI one-dose assay, NCI/ADR-RES; assay type: cell-based; details: Homo sapiens; NCI/ADR-RES; 10 µM single dose, 48 h incubation; read-out: cell growth inhibition % (GI %)
Protocol: as §1, §2

tubulin [9] = assay: Tubulin polymerization inhibition assay; assay type: biochemical
tubulin [10] = tested on: tubulin; design: method as in PMID 34832895; details: read-out: IC50 tubulin assembly; cited from earlier work
EGFR = biological target: T1, EGFR (Homo sapiens, UniProt P00533); design: method as in PMID 34832895; details: cited from earlier work
T1 construct: purchased
T1 sequence (P00533 25-1210): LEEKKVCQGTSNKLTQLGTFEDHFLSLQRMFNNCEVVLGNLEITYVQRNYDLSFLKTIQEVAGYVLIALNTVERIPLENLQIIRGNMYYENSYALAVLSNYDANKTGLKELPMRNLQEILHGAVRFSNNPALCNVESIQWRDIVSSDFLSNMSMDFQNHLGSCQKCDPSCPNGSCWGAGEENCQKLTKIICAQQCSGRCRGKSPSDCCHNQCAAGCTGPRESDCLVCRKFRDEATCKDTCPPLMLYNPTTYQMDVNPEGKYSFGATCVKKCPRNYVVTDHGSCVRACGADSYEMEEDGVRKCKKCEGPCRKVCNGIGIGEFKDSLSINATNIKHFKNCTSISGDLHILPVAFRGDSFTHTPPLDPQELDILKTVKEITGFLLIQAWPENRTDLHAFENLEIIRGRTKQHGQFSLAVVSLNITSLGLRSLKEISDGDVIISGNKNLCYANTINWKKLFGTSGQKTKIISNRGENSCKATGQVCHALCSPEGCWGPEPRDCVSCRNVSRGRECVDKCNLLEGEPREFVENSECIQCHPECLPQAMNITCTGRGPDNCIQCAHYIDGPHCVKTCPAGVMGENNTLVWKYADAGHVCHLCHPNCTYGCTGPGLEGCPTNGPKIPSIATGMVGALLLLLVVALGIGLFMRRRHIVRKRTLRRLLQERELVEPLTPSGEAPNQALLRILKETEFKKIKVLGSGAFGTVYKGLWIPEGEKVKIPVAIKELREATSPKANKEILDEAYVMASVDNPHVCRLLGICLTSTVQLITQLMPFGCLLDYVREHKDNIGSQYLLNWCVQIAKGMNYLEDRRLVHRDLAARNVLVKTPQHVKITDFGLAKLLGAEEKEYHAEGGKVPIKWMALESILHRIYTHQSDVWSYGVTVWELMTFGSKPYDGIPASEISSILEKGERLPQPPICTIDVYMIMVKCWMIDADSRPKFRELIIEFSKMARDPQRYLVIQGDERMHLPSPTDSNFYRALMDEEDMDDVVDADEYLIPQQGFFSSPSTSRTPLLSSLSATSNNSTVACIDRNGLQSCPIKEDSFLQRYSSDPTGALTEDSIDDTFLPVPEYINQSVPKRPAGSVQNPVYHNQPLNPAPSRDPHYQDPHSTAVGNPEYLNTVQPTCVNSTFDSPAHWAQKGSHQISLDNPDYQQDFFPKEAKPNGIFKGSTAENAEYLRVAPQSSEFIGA

NCI-H23 = assay: NCI one-dose assay, NCI-H23; assay type: cell-based; details: Homo sapiens; NCI-H23 (Non-Small Cell Lung Cancer), 10 uM single dose; read-out: Growth inhibition %
Protocol: as §1, §2

EGFR^WT kinase = biological target: EGFR^WT kinase; design: method as in PMID 34798457; details: cited from earlier work
EGFR^L858R/T790M = tested on: EGFR^L858R/T790M; design: method as in PMID 34798457; details: cited from earlier work
[11] = CAKI-1 (Renal Cancer), 10 uM single dose, read-out: Growth inhibition %
[12] = HCT-116 (Colon Cancer), 10 uM single dose, read-out: Growth inhibition %
[13] = IGROV-1, IGROV1 (Ovarian Cancer), 10 uM single dose, read-out: Growth inhibition %
[14] = M14 (Melanoma), 10 uM single dose, read-out: Growth inhibition %
[15] = MDA-MB-231, read-out: Growth inhibition %
[16] = NCI-H226 (Non-Small Cell Lung Cancer), 10 uM single dose, read-out: Growth inhibition %
[17] = OVCAR-3 (Ovarian Cancer), 10 uM single dose, read-out: Growth inhibition %
[18] = OVCAR-8 (Ovarian Cancer), 10 uM single dose, read-out: Growth inhibition %
[19] = PC-3 (Prostate Cancer), 10 uM single dose, read-out: Growth inhibition %
[20] = UACC-62 (Melanoma), 10 uM single dose, read-out: Growth inhibition %

## COc1ccc2c(/C=C(\C)C(=O)c3cc(OC)c(OC)c([Se]C)c3)c[nH]c2c1 [XI]
colchicine-binding site
  IC50: 1.3 µM

## CC(C)c1ccc(Cn2cc(-c3cc(-c4ccc(Br)cc4)nc(N)n3)c3ccccc32)cc1 [IV]
EGFR (L858R)
  IC50: 0.099 µM
EGFR (T790M)
  IC50: 0.094 µM
c-MET
  IC50: 0.595 µM

## Cc1cc(-c2cccc(-c3c[nH]c4ccccc34)n2)c2ccccc2n1 [XII]
Tubulin [1]
  IC50: 5 µM

## O=c1[nH]cc(F)c(=O)[nH]1 [5FU, 5-fluorouracil, reference compound]
[2]; HSF, Human Skin Fibroblasts, SRB assay, 72 h exposure, read-out: HSF (IC50 ± SD)
  IC50: 5.45 ± 0.02 µM
[2]; SI = IC50 for HSF / IC50 for MCF-7 cells
  SI (selectivity index): 2.70
[3]
  IC50: 2.02 ± 0.17 µM

## COc1cc(NC(=O)/C(C#N)=C/c2c[nH]c3ccccc23)cc(OC)c1OC [X]
Tubulin [4]
  IC50: 18 µM

## c1nc(Nc2ccc(N3CCOCC3)cc2)cc(Nc2ccc3[nH]ccc3c2)n1 [VIII]
VEGFR-2; read-out: IC50 against VEGFR-2
  IC50: 1.2 µM

## Cc1ccc(Nc2cc(Oc3ccc4[nH]ccc4c3)ncn2)cc1S(N)(=O)=O [VII]
VEGFR-2; read-out: IC50 versus VEGFR-2
  IC50: 0.045 µM

## COc1ccc(C(=O)COc2ccc(C=C3C(=O)Nc4ccccc43)cc2)cc1 [Compound 6h, 3-{4-[2-(4-Methoxyphenyl)-2-oxoethoxy]benzylidene}indolin-2-one]
other
  melting point: 192 to 194 °C
[5]
  inhibition at 10 µM: 23.6%
T-47D
  inhibition at 10 µM: 26.4%
MOLT-4
  inhibition at 10 µM: 34.3%
K-562
  inhibition at 10 µM: 39.7%
SR
  inhibition at 10 µM: 19.2%
[6]; BT-549 (Breast Cancer), 10 uM single dose, read-out: Growth inhibition %
  inhibition at 10 µM: 10.1%
[6]; [11]
  inhibition at 10 µM: 26.4%
[6]; CCRF-CEM (Leukemia), 10 uM single dose, read-out: Growth inhibition %
  inhibition at 10 µM: 14%
[6]; HCT-15 (Colon Cancer), 10 uM single dose, read-out: Growth inhibition %
  inhibition at 10 µM: 15.2%
[6]; [12]
  inhibition at 10 µM: 25.4%
[6]; HL-60(TB) (Leukemia), 10 uM single dose, read-out: Growth inhibition %
  inhibition at 10 µM: 20.8%
[6]; HS 578T (Breast Cancer), 10 uM single dose, read-out: Growth inhibition %
  inhibition at 10 µM: 11.3%
[6]; [13]
  inhibition at 10 µM: 23.7%
[6]; [14]
  inhibition at 10 µM: 12.1%
[6]; [15]
  inhibition at 10 µM: 10.8%
[6]; [16]
  inhibition at 10 µM: 15.4%
[6]; NCI-H522 (Non-Small Cell Lung Cancer), 10 uM single dose, read-out: Growth inhibition %
  inhibition at 10 µM: 17.2%
[6]; [17]
  inhibition at 10 µM: 18.3%
[6]; [18]
  inhibition at 10 µM: 15.9%
[6]; [19]
  inhibition at 10 µM: 36.1%
[6]; RPMI-8226 (Leukemia), 10 uM single dose, read-out: Growth inhibition %
  inhibition at 10 µM: 25.4%
[6]; SF-539 (CNS Cancer), 10 uM single dose, read-out: Growth inhibition %
  inhibition at 10 µM: 10.7%
[6]; SK-OV-3 (Ovarian Cancer), 10 uM single dose, read-out: Growth inhibition %
  inhibition at 10 µM: 14.1%
[6]; [20]
  inhibition at 10 µM: 31.5%
[7]
  inhibition at 10 µM: 11.7%
UO-31
  inhibition at 10 µM: 37.5%
MCF-7
  inhibition at 10 µM: 41.3%
SK-MEL-5
  inhibition at 10 µM: 17.8%
[8]
  inhibition at 10 µM: 43.7%

## COc1ccc(/C=C\c2cc(OC)c(OC)c(OC)c2)cc1O [CA-4, combretastatin A4]
Tubulin [9]; conc 0.1 (uM printed only in the CA-4 head)
  %inh Tub: […]
Tubulin [9]; conc 1 (uM printed only in the CA-4 head)
  %inh Tub: […]
Tubulin [9]; conc 10 (uM printed only in the CA-4 head)
  %inh Tub: […]
Tubulin [9]; conc 100 (uM printed only in the CA-4 head)
  %inh Tub: […]
Tubulin [9]; read-out: Tubulin polymerization inhibition (IC50 ± SD)
  IC50: […]
Tubulin [10]
  IC50: […]
Tubulin [1]
  IC50: 2.5 µM

## COc1cc(OC)c(C=C2C(=O)Nc3cc(Cl)ccc32)c(OC)c1 [XIII]
Tubulin [10]
  IC50: 1.66 µM
EGFR
  IC50: 0.549 µM

## COc1ccc(C(=O)COc2ccc(/C=C3/C(=O)Nc4cc(Cl)ccc43)cc2)cc1 [Compound 6j, (E/Z)-6-Chloro-3-{4-[2-(4-methoxyphenyl)-2-oxoethoxy]benzylidene}indolin-2-one]
other
  melting point: 165 to 167 °C
[5]
  inhibition at 10 µM: 36.7%
T-47D
  inhibition at 10 µM: 15.6%
NCI-H23
  inhibition at 10 µM: 10.5%
MOLT-4
  inhibition at 10 µM: 30.3%
K-562
  inhibition at 10 µM: 22.8%
SR
  inhibition at 10 µM: 16.7%
[6]; ACHN (Renal Cancer), 10 uM single dose, read-out: Growth inhibition %
  inhibition at 10 µM: 10.1%
[6]; [11]
  inhibition at 10 µM: 23.2%
[6]; [12]
  inhibition at 10 µM: 12.2%
[6]; HOP-62 (Non-Small Cell Lung Cancer), 10 uM single dose, read-out: Growth inhibition %
  inhibition at 10 µM: 16.7%
[6]; [13]
  inhibition at 10 µM: 21.5%
[6]; [14]
  inhibition at 10 µM: 10.3%
[6]; [15]
  inhibition at 10 µM: 12.2%
[6]; [16]
  inhibition at 10 µM: 13.2%
[6]; [17]
  inhibition at 10 µM: 18.1%
[6]; OVCAR-4 (Ovarian Cancer), 10 uM single dose, read-out: Growth inhibition %
  inhibition at 10 µM: 11%
[6]; [18]
  inhibition at 10 µM: 13.4%
[6]; [19]
  inhibition at 10 µM: 33.5%
[6]; U-251, U251 (CNS Cancer), 10 uM single dose, read-out: Growth inhibition %
  inhibition at 10 µM: 12.9%
[6]; [20]
  inhibition at 10 µM: 23.8%
[7]
  inhibition at 10 µM: 34.8%
UO-31
  inhibition at 10 µM: 35.9%
MCF-7
  inhibition at 10 µM: 34.4%

## C=CC(=O)Nc1cc(Nc2nccc(-c3cn(C)c4ccccc34)n2)c(OC)cc1-n1cccc1CN(C)C [V]
EGFR^WT kinase
  IC50: 0.037 µM
EGFR^L858R/T790M
  IC50: 0.0017 µM
  selectivity versus EGFR^L858R/T790M over EGFR^WT kinase: about 22 folds
